Tests used:
Plasmodium berghei = assay: Evaluation of anti-malarial effects (murine malaria 4 day inhibition method, infected Kunming mice); assay type: in vivo; details: intraperitoneal injection, dose equivalent to 10 mg/kg artesunate, 4 administrations, D4, mean (range)
Procedure: Preparation of animals and pathological models: Kunming mice were purchased from the Animal Center of the Military Medical Science Academy of the PLA, body weight 20±2 g, female, conventionally raised, free diet. The mice were inoculated 1×10^7 plasmodia via intraperitoneal injection on the test day (DO) to infect red blood cells to establish murine malaria infection models.
Dosage regimen: the solutions of artesunate and PEGlyation derivatives thereof were diluted with injection water to a concentration equivalent to 1 mg/ml artesunate, and each mouse was administrated by 0.2 ml intraperitoneal injection (a dose equivalent to 10 mg/kg artesunate). First administration was performed 3 hours after the mice were infected, then administrated once per 24 hours, until the 3rd day (D3) after infection, that was, totally administrated for 4 times. The placebo control group was injected with physiological saline of same volume.
On the 4th day (D4) after administration of 10 mg/kg body weight artesunate and its PEGlyation derivatives, their inhibition rates to Plasmodium berghei were all 80% or more, and there was no significant difference of inhibition rate between the derivatives and artesunate (Table 1).

[1] = Determination of drug-time curve in vivo (serum dihydroartemisinin by LC-MS after intravenous injection); details: SD rats, single intravenous (caudal vein) injection, dose equivalent to 10 mg/kg artesunate
Procedure: Samples: Artesunate, Compounds 1-4.
Preparation of samples: artesunate was dissolved with 5% NaHCO3 physiological saline to obtain 10 mg/ml colorless pellucid solution; Compound 1 was dissolved with injection physiological saline to prepare a colorless pellucid solution containing equivalently 10 mg/ml artesunate.
Animals: SD rats were purchased from the Animal Center of the Military Medical Science Academy of the PLA, body weight 200±10 g, male, conventionally raised, free diet.
Experimental method: solutions of artesunate and Compound 1 samples were administrated to each rat by intravenous injection in an amount of 0.2 ml (a dose equivalent to 10 mg/kg artesunate). Blood samples were collected at 0 min, 10 min, 20 min, 30 min, 45 min, 1 hr, 1.5 hr, 2 hr, 2.5 hr, 3 hr, 4 hr, 6 hr, 8 hr, 10 hr, respectively, and serum concentration of dihydroartemisinin were measured by LC-MS method.
Experimental Results: See FIG. 1.

Molecule | inhibition rates to Plasmodium berghei, Mean (column group headed Parasitemia (%)) (Plasmodium berghei) | half-life extended in comparison with artesunate [1]
[(Artesunate-)2-Lys-]2-PEG20k [Compound 1] | 87.2(82.7-92.7) % | about 5 times
C[C@H]1[C@H](OC(=O)CCC(=O)O)O[C@@H]2O[C@@]3(C)CC[C@H]4[C@H](C)CC[C@@H]1[C@@]24OO3 [Artesunate] | 84.0(76.0-94.6) % | 
Artesunate-NH-PEG20k-NH-Artesunate [Compound 4] | 80.8(79.7-87.0) % | 
mPEG20k-Lys2-(Artesunate)4 [Compound 3] | 92.1(87.8-95.1) % | 
mPEG20k-Lys-(Artesunate)2 [Compound 2] | 87.0(79.3-97.4) % | 

From patent US9623111B2, “Pegylated artesunate derivative, pharmaceutical composition and use thereof” (Institute of Pharmacology and Toxicology Academy of …, priority 2012, dated 2017)
